This note sets out measurements from US8399491B2, “Derivatives of indole-2-carboxamides and of azaindole-2-carboxamides substituted with a silanyl group, preparation thereof and therapeutic use thereof” (Sanofi, priority 2008, dated 2013).

One data set has as its target T1, TRPV1 receptor (Rattus norvegicus, UniProt O35433).
T1 construct: The neurones of the DRG naturally express the TRPV1 receptor; endogenous in cells; host or cells: primary culture of newborn rat dorsal root ganglion (DRG) neurones
The data set can be described thus: Inhibition of the current induced by capsaicin on rat DRGs (whole-cell patch-clamp). The data set is classed as cell-based. The note with it: capsaicin response (1 microM), newborn rat DRG primary culture. As for the experimental part:
Test for Inhibition of the Current Induced by Capsaicin on Rat DRGs
Primary Culture of Rat Dorsal Route Ganglion (DRG) Cells:
The neurones of the DRG naturally express the TRPV1 receptor.
Newborn rat DRG primary cultures are prepared from 1-day-old rat pups. Briefly, after dissection, the ganglia are trypsinized and the cells are mechanically dissociated by controlled trituration. The cells are resuspended in an Eagle's basal culture medium containing 10% of foetal calf serum, 25 mM KCl, 2 mM glutamine, 100 μg/ml gentamicin and 50 ng/ml of NGF, and then deposited onto laminin-coated glass coverslips (0.2×10^6 cells per coverslip) which are then placed in Corning 12-well dishes. […]
The measuring chambers (volume 800 μl) containing the cell preparation are placed on the platform of an inverted microscope (Olympus IMT2) equipped with Hoffman optics (Modulation Contrast, New York) and observed at the magnification of ×400. […] The overall currents (membrane potential fixed at −60 mV) are recorded with an Axopatch 1D amplifier (Axon Instruments, Foster city, Calif.), connected to a PC controlled by Pclamp8 software (Axon Instruments). The current traces are recorded on paper and simultaneously digitized (sampling frequency 15 to 25 Hz) and acquired on the hard drive of the PC. […] The results are expressed as % inhibition of the control capsaicin response.
In general terms: Patch clamp records ionic current or voltage across a cell membrane.

T1 sequence (O35433 whole entry): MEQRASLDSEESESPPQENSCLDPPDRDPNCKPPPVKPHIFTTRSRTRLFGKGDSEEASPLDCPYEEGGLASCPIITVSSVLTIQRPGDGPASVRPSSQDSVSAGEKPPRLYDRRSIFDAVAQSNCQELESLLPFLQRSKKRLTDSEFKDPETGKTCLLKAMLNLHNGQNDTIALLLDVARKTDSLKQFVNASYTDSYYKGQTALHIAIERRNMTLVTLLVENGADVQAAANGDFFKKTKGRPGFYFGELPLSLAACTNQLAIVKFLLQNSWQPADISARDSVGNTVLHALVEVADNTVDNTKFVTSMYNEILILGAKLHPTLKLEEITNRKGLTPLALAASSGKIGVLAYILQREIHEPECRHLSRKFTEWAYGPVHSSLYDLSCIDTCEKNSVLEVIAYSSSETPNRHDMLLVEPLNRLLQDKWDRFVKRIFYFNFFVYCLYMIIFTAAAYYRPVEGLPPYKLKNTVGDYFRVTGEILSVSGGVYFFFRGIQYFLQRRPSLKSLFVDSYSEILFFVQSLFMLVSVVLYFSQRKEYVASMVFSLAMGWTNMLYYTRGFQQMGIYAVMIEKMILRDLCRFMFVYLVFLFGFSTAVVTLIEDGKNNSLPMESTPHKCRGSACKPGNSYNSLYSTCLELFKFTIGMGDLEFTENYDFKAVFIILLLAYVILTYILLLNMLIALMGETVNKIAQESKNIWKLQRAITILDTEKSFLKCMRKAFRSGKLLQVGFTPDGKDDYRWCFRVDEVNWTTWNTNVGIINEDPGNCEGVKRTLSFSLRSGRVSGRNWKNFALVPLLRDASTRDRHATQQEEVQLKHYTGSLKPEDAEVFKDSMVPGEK

What is called melting point is the temperature, or range, at which the solid turns liquid. For `C[Si](C)(C)c1ccc2c(c1)cc(C(=O)Nc1ccc(N3CC(O)C3)nc1)n2Cc1cccc(F)c1`, the melting point fell in the range of 207 to 208 °C.

Broadly, the inhibition is the relative decrease from the control value, in per cent. The low end stands for little suppression, the high end for strong suppression. `C[Si](C)(C)c1ccc2cc(C(=O)Nc3ccc(N4CC(O)C4)nc3)n(Cc3cccc(F)c3)c2c1` [Compound 2, N-[6-(3-Hydroxyazetidin-1-yl)pyridin-3-yl]-6-trimethylsilyl-1-[(3-fluorophenyl)methyl]-1H-indole-2-carboxamide] displayed an inhibition at 0.001 µM at TRPV1 receptor (compound at 1 nM) of 84%.

On to `C[Si](C)(C)c1ccc2c(c1)cc(C(=O)Nc1ccc(N3CCC3)nc1)n2Cc1cccc(F)c1` [Compound 3, N-[6-(Azetidin-1-yl)pyridin-3-yl]-5-trimethylsilyl-1-[(3-fluorophenyl)methyl]-1H-indole-2-carboxamide], for which the melting point is 212 to 213 °C. At TRPV1 receptor (compound at 10 nM), testing at 0.01 µM gave an inhibition of 95%.

`CC(C)(C)[Si](C)(C)c1ccc2c(c1)cc(C(=O)Nc1ccc(N3CCC3)nc1)n2Cc1cccc(F)c1` returned a melting point of 110 to 112 °C.

Compound `CC[Si](CC)(CC)c1ccc2c(c1)cc(C(=O)Nc1ccc(N3CCC3)nc1)n2Cc1cccc(F)c1` gave a melting point of 166 to 168 °C.

In the case of `C[Si](C)(C)c1cccc2cc(C(=O)Nc3ccc(N4CCC4)nc3)n(Cc3cccc(F)c3)c12`, the melting point lay in the range of 160 to 162 °C.

Compound `CC[Si](C)(C)c1ccc2c(c1)cc(C(=O)Nc1ccc(N3CCC3)nc1)n2Cc1cccc(F)c1` registered a melting point of 188 to 189 °C.

In the case of `C[Si](C)(c1ccc2c(c1)cc(C(=O)Nc1ccc(N3CCCC3)nc1)n2Cc1cccc(F)c1)C1CCCCC1`, the melting point lay within 192 to 194 °C.

Take `C[Si](C)(C)c1cccc2cc(C(=O)Nc3ccc(N4CC(O)C4)nc3)n(Cc3cccc(F)c3)c12`: the melting point was 215 to 217 °C.

Take `C[Si](C)(c1ccc2c(c1)cc(C(=O)Nc1ccc(N3CCC3)nc1)n2Cc1cccc(F)c1)C1CCCCC1`: the melting point fell in the range of 202 to 203 °C.

The compound `O=C(Nc1ccc(N2CCC2)nc1)c1cc2cc([SiH2]C(c3ccccc3)c3ccccc3)ccc2n1Cc1cccc(F)c1` gave a melting point of 98 to 100 °C.

With `CC(C)[Si](C)(C)c1ccc2c(c1)cc(C(=O)Nc1ccc(N3CCC3)nc1)n2Cc1cccc(F)c1`, the melting point lay in the range of 179 to 180 °C.

`C[Si](C)(c1ccccc1)c1ccc2c(c1)cc(C(=O)Nc1ccc(N3CCC3)nc1)n2Cc1cccc(F)c1` displayed a melting point of 200 to 202 °C.

Consider `CC[Si](C)(CC)c1ccc2c(c1)cc(C(=O)Nc1ccc(N3CCC3)nc1)n2Cc1cccc(F)c1`, for which the melting point is 171 to 173 °C.
